Reference: paper PMC6832266, “Natural Sesquiterpene Lactones of the 4,15-iso-Atriplicolide Type are Inhibitors of Trypanothione Reductase” (Molecules, 2019)

Columns and labels:
Assay type in all cases: biochemical
[1] = biological target: T1, trypanothione reductase (TcTR) (Trypanosoma cruzi, UniProt P28593); test: NADPH-consumption TR assay on recombinant enzyme, % inhibition at […] after […] min preincubation; details: read-out: TcTR / % Inhibition at c = 100 μM Preincubation Time (min)
T1 construct: gene TPR
T1 sequence (P28593 whole entry): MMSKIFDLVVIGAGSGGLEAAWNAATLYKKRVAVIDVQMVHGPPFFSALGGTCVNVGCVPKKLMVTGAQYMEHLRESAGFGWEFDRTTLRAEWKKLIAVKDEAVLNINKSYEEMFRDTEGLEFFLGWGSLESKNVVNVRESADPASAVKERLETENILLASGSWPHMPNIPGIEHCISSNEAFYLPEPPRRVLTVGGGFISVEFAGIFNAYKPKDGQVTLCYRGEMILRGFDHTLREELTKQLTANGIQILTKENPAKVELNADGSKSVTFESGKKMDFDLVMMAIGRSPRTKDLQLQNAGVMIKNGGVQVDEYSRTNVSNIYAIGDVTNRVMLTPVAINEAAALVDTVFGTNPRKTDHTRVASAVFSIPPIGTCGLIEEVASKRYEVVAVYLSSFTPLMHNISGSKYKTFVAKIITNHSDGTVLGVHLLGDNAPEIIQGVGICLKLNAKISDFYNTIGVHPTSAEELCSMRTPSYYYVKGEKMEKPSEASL

[2] = biological target: T2, trypanothione reductase (TbTR) (Trypanosoma brucei, UniProt P39051); test: NADPH-consumption TR assay on recombinant enzyme; Lineweaver-Burk kinetics; dilution assay (irreversible, time-dependent)
T2 construct: gene TPR
T2 sequence (P39051 whole entry): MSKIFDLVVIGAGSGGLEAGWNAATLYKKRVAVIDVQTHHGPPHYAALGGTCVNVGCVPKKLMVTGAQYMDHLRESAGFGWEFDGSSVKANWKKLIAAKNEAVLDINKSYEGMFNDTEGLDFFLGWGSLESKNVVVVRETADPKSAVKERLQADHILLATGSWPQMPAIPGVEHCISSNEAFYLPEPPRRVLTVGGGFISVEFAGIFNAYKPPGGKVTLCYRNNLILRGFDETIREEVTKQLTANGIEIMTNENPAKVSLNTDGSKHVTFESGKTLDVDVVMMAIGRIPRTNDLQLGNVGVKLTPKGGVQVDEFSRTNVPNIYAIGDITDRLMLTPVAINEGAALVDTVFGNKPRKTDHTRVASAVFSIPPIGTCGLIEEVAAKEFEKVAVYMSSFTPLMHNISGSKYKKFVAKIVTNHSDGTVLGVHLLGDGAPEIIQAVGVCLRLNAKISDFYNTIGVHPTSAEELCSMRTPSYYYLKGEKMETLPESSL

[3] = biological target: T2, trypanothione reductase (TbTR); test: NADPH-consumption TR assay on recombinant enzyme, % inhibition at […] after […] min preincubation; dilution assay; details: read-out: TbTR / % Inhibition at c = 100 μM Preincubation Time (min)

Compound | inhibition at 100 µM [1] [%] | Ki [2] [µM] | inhibition at 100 µM [3] [%]
C=C1C[C@H]2OC(=O)C(=C)[C@@H]2[C@H](OC(=O)/C(C)=C/C)C[C@@]2(C)OC1=CC2=O [compound 1, 4,15-iso-Atriplicolide tiglate] | 89 ± 1 | 128 ± 8 | –
C=C(C)C(=O)O[C@@H]1C[C@@]2(C)OC(=CC2=O)C(=C)C[C@H]2OC(=O)C(=C)[C@H]12 [compound 2, 4,15-iso-atriplicolide methacrylate] | 41 ± 1 | – | 84
C=C1C[C@H]2OC(=O)C(=C)[C@@H]2[C@H](OC(=O)C(C)C)C[C@@]2(C)OC1=CC2=O [compound 3, 4,15-iso-atriplicolide isobutyrate] | 80 | – | 79
